Test results as given in patent publication US8901137B2, “Methods of treating cancer using pyridopyrimidinone inhibitors of PI3K and mTOR in combination with autophagy inhibitors” (Exelixis, Inc., priority 2010, dated 2014).

Columns and labels:
MiaPaCa2 cells [1] = assay: Induction of apoptosis in MiaPaCa2 cells by FACS analysis; format: cell-based; conditions: 72 hours, FIG. 2A
[2] = tested on: Xenograft tumors derived from BxPC3 cells; assay: BxPC3 xenograft tumor growth in nude mice (Biological Example 8A); format: in vivo; conditions: BxPC3 subcutaneous flank tumors in nude mice, once daily dosing, 30 days; FIG. 4A
Method: Whether autophagy inhibition increased the activity of Compound A in vivo was explored. Xenograft tumors derived from BxPC3 cells were grown subcutaneously as flank tumors in nude mice to a size of 150 mm^3. Treatment with Compound A, alone or in combination with choloroquine, was administered for 30 days. Treatment with Compound A along and Compound A in combination with chloroquine was carried out by once daily dosing as indicated. Tumor volume was measured regularly. Tumors were harvested from euthanized mice for protein expression analyses.

PDAC cell lines = assay: Apoptosis induction in PDAC cell lines (PI/Annexin V, FACS); format: cell-based; conditions: representative subset of PDAC cell lines, dual staining with PI and Annexin V, FIG. 1
BxPC-3 cells = assay: BxPC-3 xenograft tumor growth in Nu/Nu mice (Biological Example 8B); format: in vivo; conditions: BxPC-3 s.c. in Nu/Nu mice; Compound A 30 mg/kg oral gavage, CQ 50 mg/kg i.p., 5 times/week, 28 days; FIG. 4B
Method: Female 7-9 weeks old Nu/Nu mice (Harlan, FoxN 1/nude) were inoculated s.c. with 10^7 BxPC-3 cells. Mice were monitored according to the protocol approved by the University of California, San Francisco Institutional Animal Care and Use Committee. When tumors reached about 100 mm^3, mice were randomly assigned to one of […] treatment groups: vehicle control, Compound A 30 mg/kg, Chloroquine (CQ) 50 mg/kg, Compound A+CQ. Compound A was solubilized in water/10 mM HCl, Compound B was dissolved in water, both drugs were administered by oral gavage once a day 5 times/week. CQ was dissolved in saline and injected i.p daily, 5 times/week. Each treatment regimen was tested in cohorts of eight mice and the dosing was continued for 28 days. Tumor sizes were measured twice weekly in two dimensions using a caliper, tumor size (mm^3) was calculated as (length×width^2)/2. Animals were monitored for toxicity by measuring body weight twice weekly and monitoring overall activity.
Dbata are expressed as means+/−standard deviation. Statistical analysis was performed by using Student's t-test (two-tailed). P values of <0.05 were considered significant.

MiaPaCa2 cells [3] = assay: Induction of autophagy by acridine orange staining and FACS analysis; format: cell-based; conditions: FIG. 2B
Description: Occurrence of cytoplasmic vacuoles in tumor cells treated with dual-targeted inhibitors are consistently observed. […] A variety of assays, including LC3-I to LC3-II conversion, acridin orange supravital staining, and MDC staining indicate whether treatment of pancreatic cancer cells with a compound of the invention will induce autophagy.

pancreatic cancer cells = assay: Effect of autophagy inhibitors on autophagy and apoptosis of treated cells; format: cell-based
Description: We therefore tested whether inhibitors of autophagy or apoptosis could shift the cellular response from autophagy to apoptosis or vice versa.

Row | Structure (SMILES) | induction of apoptosis (MiaPaCa2 cells [1]) | tumor growth (tumor volume) [2] | apoptosis induction (PDAC cell lines) | tumor growth (tumor size) (BxPC-3 cells) | induction of autophagy (MiaPaCa2 cells [3]) | autophagy (pancreatic cancer cells; autophagy inhibitor added to cells treated with dual-targeted inhibitor, data not shown) | fraction of cells undergoing apoptosis (pancreatic cancer cells; autophagy inhibitor added, FIG. 3: Compound A with or without CQ 5 mM, 72 hours, PI/Annexin-V FACS)
1 | CCn1c(=O)c(-c2ccn[nH]2)cc2c(C)nc(N)nc21 [Compound A] | induction of apoptosis | no clear growth-inhibitory effect | apoptosis induction | no clear growth-inhibitory effect | induction of autophagy |  | 
2 | Cn1cnc(N)c2ncnc1-2 [Example 3-MA, 3-methyladenine] |  |  |  |  |  | inhibited autophagy | significantly increased
